Measured values as given in ChEMBL document CHEMBL4619806, “Screening of a Custom-Designed Acid Fragment Library Identifies 1-Phenylpyrroles and 1-Phenylpyrrolidines as Inhibitors of Notum Carboxylesterase Activity” (J Med Chem, 2020).
pIC50: −log10 of the molar value. Converted amounts (≈) assume the structure as drawn.

Columns and labels:
[1] = molecular target: T1, Palmitoleoyl-protein carboxylesterase NOTUM (Homo sapiens, UniProt Q6P988, C330S); experiment: Inhibition of human Notum (S81 to T451 residues) Cys330Ser mutant expressed in HEK293S GnTI cells using OPTS as substrate incubated for 40 mins by fluorescence based assay
[2] = molecular target: T1, Palmitoleoyl-protein carboxylesterase NOTUM; experiment: Inhibition of human Notum (S81 to T451 residues) Cys330Ser mutant expressed in HEK293S GnTI cells at 100 uM using OPTS as substrate incubated for 40 mins by fluorescence based assay relative to control
[3] = Aqueous solubility at pH 7.4; type: physicochemical; details: buffer
[4] = Apparent permeability from basolateral to apical side in MDCK2-MDR1 cells at 10 uM measured up to 120 mins by LC-MS/MS analysis; type: ADME, cell-based, Canis lupus familiaris; details: dog, MDCK-MDR1
[5] = Intrinsic clearance in mouse liver microsomes at 1 uM measured up to 60 mins in presence of NADPH by LC-MS/MS analysis; type: ADME, Microsome; details: read-out: CLH
[6] = Apparent permeability from apical to basolateral side in MDCK2-MDR1 cells at 10 uM measured up to 120 mins by LC-MS/MS analysis; type: ADME, cell-based, Canis lupus familiaris; details: dog, MDCK-MDR1
[7] = Chromatographic hydrophobicity index, log D of the compound at pH 7.4; type: physicochemical; details: buffer
[8] = Efflux ratio of apparent permeability in MDCK2-MDR1 cells at 10 uM measured up to 120 mins by LC-MS/MS analysis; type: ADME, cell-based, Canis lupus familiaris; details: dog, MDCK-MDR1

T1 sequence (Q6P988 20-496 C330S limits assumed): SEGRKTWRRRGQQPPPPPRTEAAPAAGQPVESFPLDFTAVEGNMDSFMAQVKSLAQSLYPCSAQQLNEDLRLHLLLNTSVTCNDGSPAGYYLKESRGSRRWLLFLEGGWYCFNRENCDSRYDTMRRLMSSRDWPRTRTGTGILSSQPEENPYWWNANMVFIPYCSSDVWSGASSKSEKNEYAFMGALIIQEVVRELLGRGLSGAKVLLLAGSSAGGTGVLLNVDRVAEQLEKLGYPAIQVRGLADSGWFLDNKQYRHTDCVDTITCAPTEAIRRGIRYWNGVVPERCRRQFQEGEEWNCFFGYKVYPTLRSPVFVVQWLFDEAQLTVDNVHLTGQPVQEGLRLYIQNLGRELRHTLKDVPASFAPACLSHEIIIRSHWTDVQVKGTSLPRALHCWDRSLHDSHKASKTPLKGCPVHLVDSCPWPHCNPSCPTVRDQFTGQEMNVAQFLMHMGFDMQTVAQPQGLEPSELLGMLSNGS

| Structure (SMILES) | pIC50 [1] | further results |
| --- | --- | --- |
| Cc1cc(C(=O)O)c(C)n1-c1ccccc1 | 5.77 | – |
| Cc1cc(C(=O)O)c(C)n1Cc1ccccc1 | 4.85 | – |
| Cc1cc(C(=O)O)c(C)n1C1CC1 | 5.20 | – |
| Cc1cc(C(=O)O)c(C)n1-c1ccc(F)cc1 | 5.72 | – |
| Cc1ccc(-n2c(C)cc(C(=O)O)c2C)cc1 | 5.70 | – |
| Cc1cc(C(=O)O)c[nH]1 | 4.00 | inhibition at 100 µM [2]: 50% |
| COc1cccc(-n2c(C)cc(C(=O)O)c2C)c1 | 5.82 | – |
| COc1c(Cl)cccc1-n1c(C)cc(C(=O)O)c1C | 6.10 | – |
| O=C(C1CCN(c2ccc(Cl)c(C(F)(F)F)c2)C1)N1CCCC1 (configuration not stated) | 6.39 | – |
| COCCNC(=O)C1CCN(c2ccc(Cl)c(C(F)(F)F)c2)C1 (configuration not stated) | 5.46 | – |
| Cc1cccc(-n2c(C)cc(C(=O)O)c2C)c1 | 5.82 | – |
| Cc1cc(C(=O)O)c(C)n1-c1cccc(C(C)C)c1 | 6.44 | – |
| CN1CN(C(=O)C2CCN(c3ccc(Cl)c(C(F)(F)F)c3)C2)CC1=O (configuration not stated) | 5.85 | – |
| Cc1cc(C(=O)O)c(C)n1-c1cccc(F)c1 | 5.82 | – |
| CN1CCN(C(=O)C2CCN(c3ccc(Cl)c(C(F)(F)F)c3)C2)CC1=O (configuration not stated) | 5.51 | – |
| Cc1cc(C(=O)O)c(C)n1-c1cccc(Cl)c1F | 6.42 | – |
| Cc1cc(C(=O)O)c(C)n1-c1cccc(Cl)c1C#N | 5.70 | – |
| Cc1[nH]ccc1C(=O)O | < 4.00 | inhibition at 100 µM [2]: < 20% |
| Cc1cc(C(=O)O)c(C)n1C | < 4.00 | inhibition at 100 µM [2]: 20 to 40% |
| O=C(C1CCN(c2ccc(Cl)c(C(F)(F)F)c2)C1)N1CCOCC1 (configuration not stated) | 5.01 | – |
| O=C(O)[C@H]1CCN(c2ccc(Cl)c(C(F)(F)F)c2)C1 | – | solubility [3]: > 595 µM; Papp B→A at 2 h, 10 µM [4]: 430 nm/s; microsomal CLint at 1 µM [5]: 2.5 µL/min/mg; Papp A→B at 2 h, 10 µM [6]: 390 nm/s; chromatographic logD [7]: 1.5 |

| Structure (SMILES) | pIC50 [1] | further results |
| --- | --- | --- |
| Cc1cc(C(=O)O)c(C)n1-c1cccc(C(F)(F)F)c1 | 5.82 | – |
| Cc1cc(C(=O)O)c(C)n1-c1c(Cl)cccc1Cl | 5.64 | – |
| Cc1cc(C(=O)O)c(C)n1-c1cccc(C2CC2)c1 | 6.24 | – |
| O=C(O)c1c[nH]c(C(F)(F)F)c1 | < 4.00 | inhibition at 100 µM [2]: < 20% |
| Cc1cc(C(=O)O)c(C)n1-c1cccc(C2CC2)c1F | 6.70 | – |
| Cc1c(C(=O)O)cc(C(F)(F)F)n1Cc1ccccc1 | < 4.00 | inhibition at 100 µM [2]: 20 to 40% |
| Cc1cc(C(=O)O)c(C)n1-c1cc(Cl)ccc1Cl | 5.77 | – |
| CCOc1cccc(-n2c(C)cc(C(=O)O)c2C)c1 | 6.19 | – |
| CNC(=O)C1CCN(c2ccc(Cl)c(C(F)(F)F)c2)C1 (configuration not stated) | 5.89 | – |
| Cc1c(C(=O)O)ccn1Cc1ccccc1 | 5.51 | – |
| O=C(O)C1CCN(c2cccc(C(F)(F)F)c2F)C1 (configuration not stated) | 5.17 | – |
| Cc1cc(C(=O)O)c(C)n1-c1cc(Cl)cc(Cl)c1 | 6.07 | – |
| O=c1[nH]nc(C2CCN(c3ccc(Cl)c(C(F)(F)F)c3)C2)o1 (configuration not stated) | 5.38 | solubility [3]: 69 µM (≈ 23 µg/mL); Papp B→A at 2 h, 10 µM [4]: 190 nm/s; microsomal CLint at 1 µM [5]: 10 µL/min/mg; Papp A→B at 2 h, 10 µM [6]: 130 nm/s; chromatographic logD [7]: 3.5; efflux ratio at 2 h, 10 µM [8]: 1.5 |
| O=C(Nc1ccccc1)C1CCN(c2ccc(Cl)c(C(F)(F)F)c2)C1 (configuration not stated) | 6.00 | – |
| Cc1cc(C(=O)O)c(C)n1-c1cccc(C#N)c1 | 5.51 | – |
| O=C(C1CCN(c2ccc(Cl)c(C(F)(F)F)c2)C1)N1CC(F)(F)C1 (configuration not stated) | 6.59 | solubility [3]: 19 µM (≈ 7.01 µg/mL); Papp B→A at 2 h, 10 µM [4]: 100 nm/s; microsomal CLint at 1 µM [5]: 21 µL/min/mg; Papp A→B at 2 h, 10 µM [6]: 80 nm/s; chromatographic logD [7]: 4; efflux ratio at 2 h, 10 µM [8]: 1.2 |
| Cc1cc(C(=O)O)c(C)n1-c1ccc(C(F)(F)F)c(Cl)c1 | 5.82 | – |
| Cc1[nH]c(C(F)(F)F)cc1C(=O)O | 5.17 | – |
| Cc1cc(C(=O)O)c(C)n1-c1ccccc1F | 5.48 | – |
| O=C(O)C1CCN(c2ccccc2Cl)C1 (configuration not stated) | 4.72 | – |
| Cc1cc(C(=O)O)c(C)n1-c1ccc(Cl)c(Cl)c1 | 6.57 | – |

| Structure (SMILES) | pIC50 [1] | further results |
| --- | --- | --- |
| Cc1cc(C(=O)O)c(C)n1-c1cccc(C(C)(C)C)c1 | 6.34 | – |
| Cc1cc(C(=O)O)c(C)n1-c1cccc(Cl)c1 | 6.37 | – |
| Cc1cc(C(=O)O)c(C)[nH]1 | < 4.00 | inhibition at 100 µM [2]: < 20% |
| CN(C)C(=O)C1CCN(c2ccc(Cl)c(C(F)(F)F)c2)C1 (configuration not stated) | 5.92 | – |
| Cc1cc(C(=O)O)c(C)n1-c1ccc(Cl)cc1Cl | 6.37 | – |
| Cc1c(C(=O)O)ccn1-c1ccccc1 | 5.42 | – |
| O=C(C1CCN(c2ccc(Cl)c(C(F)(F)F)c2)C1)N1CC2COCC2C1 (configuration not stated) | 5.51 | – |
| Cc1c[nH]c(C)c1C(=O)O | 4.00 | inhibition at 100 µM [2]: 50% |
| Cc1cc(C(=O)O)c(C)n1-c1cccc(C#N)c1F | 6.20 | – |
| Cc1ccccc1-n1c(C)cc(C(=O)O)c1C | 5.66 | – |
| Cc1cc(C(=O)O)c(C)n1-c1ccccc1Cl | 5.64 | – |
| Cc1cc(C(=O)O)c(C)n1-c1cccc(C(C)C)c1F | 6.82 | solubility [3]: 51 µM (≈ 14 µg/mL); Papp B→A at 2 h, 10 µM [4]: 430 nm/s; microsomal CLint at 1 µM [5]: 52 µL/min/mg; Papp A→B at 2 h, 10 µM [6]: 460 nm/s; chromatographic logD [7]: 3.1; efflux ratio at 2 h, 10 µM [8]: 0.93 |
| Cc1cc(C(=O)O)c(C)n1-c1cccc(Cl)c1Cl | 6.66 | – |
| Cc1cc(C(=O)O)c(C)n1-c1ccc(Cl)c(C(F)(F)F)c1 | 5.68 | – |
| Cc1cc(C(=O)O)c(C)n1CC1CC1 | 4.90 | – |
| O=C(O)C1CCN(c2ccccc2F)C1 (configuration not stated) | 4.95 to 4.96 | – |
| Cc1c(C(=O)O)cc(C(F)(F)F)n1-c1ccccc1 | 4.66 | – |
| Cc1cc(C(=O)O)c(C)n1-c1ccc(Cl)cc1 | 6.07 | – |
| FC(F)(F)c1cc(N2CCC(c3nnco3)C2)ccc1Cl (configuration not stated) | 4.62 | – |
| Cc1c[nH]cc1C(=O)O | 4.00 | inhibition at 100 µM [2]: 50% |
| O=C(O)c1cc[nH]c1 | < 4.00 | inhibition at 100 µM [2]: < 20% |

| Structure (SMILES) | pIC50 [1] | further results |
| --- | --- | --- |
| Cc1cccc(N2CCC(C(=O)O)C2)c1 (racemic) | 4.31 | – |
| O=C(O)C1CCN(c2ccc(F)cc2)C1 (racemic) | 4.82 | – |
| O=C(O)C1CCN(c2cccc(C(F)(F)F)c2)C1 (racemic) | 4.96 | – |
| O=C(O)C1CCN(c2cc(Cl)ccc2Cl)C1 (racemic) | 5.10 | – |
| O=C(O)C1CCN(c2ccc(Cl)c(Cl)c2Cl)C1 (racemic) | 6.22 | – |
| O=C(O)C1CCN(c2cccc(OC(F)(F)F)c2)C1 (racemic) | 4.20 | – |
| O=C(O)C1CCN(c2cc(Cl)cc(Cl)c2)C1 (racemic) | 4.96 | – |
| O=C(O)C1CCN(c2cccc(Cl)c2)C1 (racemic) | 4.85 | – |
| O=C(O)C1CCN(c2ccc(Cl)cc2)C1 (racemic) | 4.72 | – |
| O=C(O)C1CCN(c2cccc(Cl)c2Cl)C1 (racemic) | 5.10 | – |
| O=C(O)C1CCN(c2ccc(F)c(C(F)(F)F)c2)C1 (racemic) | 5.60 | – |
| N#Cc1cccc(N2CCC(C(=O)O)C2)c1 (racemic) | 4.38 | – |
| O=C(O)C1CCN(c2c(Cl)cccc2Cl)C1 (racemic) | 4.59 | – |
| O=C(O)C1CCN(c2ccc(Cl)c(Cl)c2)C1 (racemic) | 5.92 | – |
| O=C(O)C1CCN(c2ccc(C(F)(F)F)cc2)C1 (racemic) | 4.30 | – |
| O=C(O)C1CCN(c2ccc(C(F)(F)F)c(Cl)c2)C1 (racemic) | 5.07 | – |
| CC(C)c1cccc(N2CCC(C(=O)O)C2)c1 (racemic) | 4.24 | – |
| O=C(O)C1CCN(c2ccc(Cl)cc2Cl)C1 (racemic) | 5.00 | – |
